This note sets out measurements from patent US20260070945A1, “MACROCYCLIC IMMUNOMODULATORS” (Bristol-Myers Squibb Company, priority 2022, published 2026).

Molecules are shown by their SMILES. *1 amine or outer side, *2 acyl side, *3 side chain or, on linkers, in order; H or OH if unused. Where a SMILES comes first, the peptide text is derived from it. Bridges are numbered along the chain shown (N, C = ends). [ ]: non-standard residue; d: D form. The star is where a group is joined. ξ: configuration not given here. Phe(3-CF3) = N[C@@H](Cc1cccc(C(F)(F)F)c1)C(=O)O; Phe(4-COOH) = N[C@@H](Cc1ccc(C(=O)O)cc1)C(=O)O; Bip = N[C@@H](Cc1ccc(-c2ccccc2)cc1)C(=O)O; Phe(3-CN) = N#Cc1cccc(C[C@H](N)C(=O)O)c1; Phe(3-Me) = Cc1cccc(C[C@H](N)C(=O)O)c1; γGlu = O=C(O)[C@H](CCC(=O)[*:2])N[*:1]; NH(CH2)12COOH = O=C(O)CCCCCCCCCCCCN*; Val(3-OH) = CC(C)(O)[C@H](N)C(=O)O; 4Pal = N[C@@H](Cc1ccncc1)C(=O)O; Cha = N[C@@H](CC1CCCCC1)C(=O)O; Cit = NC(=O)NCCC[C@H](N)C(=O)O; Ile(3ξ) = CCC(C)[C@H](N)C(=O)O; Thr(3ξ) = CC(O)[C@H](N)C(=O)O; NMeS = CN[C@@H](CO)C(=O)O; hSer = N[C@@H](CCO)C(=O)O; Carboxymethyl = O=C(O)C*; NMeA = CN[C@@H](C)C(=O)O; Orn = NCCC[C@H](N)C(=O)O; Aun = NCCCCCCCCCCC(=O)O; Dab = NCC[C@H](N)C(=O)O; AEEA = NCCOCCOCC(=O)O

Usually IC50 stands for the concentration that inhibits the measured activity by half.

This experiment deals with T1, PD-1/PD-L1 interaction (PE-labeled human PD-L1-Ig binding to Jurkat cell line over-expressing human PD-1) (Homo sapiens, UniProt Q15116).
T1 construct: expressed in transfected cells; host or cells: Jurkat
T1 sequence (Q15116 25-288): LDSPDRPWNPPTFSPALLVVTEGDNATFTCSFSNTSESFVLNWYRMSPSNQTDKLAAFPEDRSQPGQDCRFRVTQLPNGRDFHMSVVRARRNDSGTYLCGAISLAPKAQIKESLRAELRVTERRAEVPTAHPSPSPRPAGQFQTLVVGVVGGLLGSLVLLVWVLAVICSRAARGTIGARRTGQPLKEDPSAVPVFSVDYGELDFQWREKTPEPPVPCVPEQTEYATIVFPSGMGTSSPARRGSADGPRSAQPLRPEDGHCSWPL
The experiment is described as follows: Jurkat-PD-1 Cell Binding High-Content Screening Assay (CBA). To be noted: Jurkat-hPD-1 cells, PE-labeled PD-L1-Ig 20 nM final; read-out: Jurkat HPD1 PDL1 IC50. A digest of the protocol:
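Cells 8×10^3/well, DMEM + 10% FCS; cpd 2 h, 37 °C; PE–PD-L1-Ig 20 nM final, 1 h; PFA fix + Hoechst 33342, 3× dPBS wash; high-content imager.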
For the compound `Cc1cccc(C[C@@H]2NC(=O)[C@H](CC(=O)O)NC(=O)[C@H](Cc3ccc(OCC(=O)O)cc3)NC(=O)[C@H](C(C)O)NC(=O)CSC[C@@H](C(=O)N[C@@H](CCN)C(=O)NCCOCCOCC(=O)NCCCCCCCCCCC(=O)O)NC(=O)[C@H](CCC(=O)O)NC(=O)[C@H](C(C)(C)O)NC(=O)[C@H](CC3CCCCC3)NC(=O)[C@H](CCN)NC(=O)[C@@H](CC(C)C)NC(=O)[C@H](C)N(C)C(=O)[C@H](Cc3ccc(OCC(=O)O)cc3)NC(=O)[C@H](Cc3ccc(-c4ccccc4)cc3)NC(=O)[C@H](Cc3ccc(C(=O)O)cc3)NC2=O)c1` (stereo partly drawn) [Example 2473] ({CH2CO}-[Thr(3ξ)]Y(Carboxymethyl)D[Phe(3-Me)][Phe(4-COOH)][Bip]Y(Carboxymethyl)[NMeA][dL][Dab][Cha][Val(3-OH)]EC[Dab][AEEA][Aun]-OH; thioether N-14), the IC50 was 32.1 nM.

For `CC(C)C[C@H]1NC(=O)[C@H](C)N(C)C(=O)[C@H](Cc2ccc(OCC(=O)O)cc2)NC(=O)[C@H](Cc2ccc(-c3ccccc3)cc2)NC(=O)[C@H](Cc2ccc(C(=O)O)cc2)NC(=O)[C@H](Cc2cccc(C#N)c2)NC(=O)[C@H](CC(=O)O)NC(=O)[C@H](Cc2ccc(OCC(=O)O)cc2)NC(=O)[C@H]([C@@H](C)O)NC(=O)CSC[C@@H](C(=O)N[C@@H](CCN)C(=O)NCCCCCCCCCCC(=O)O)NC(=O)[C@H]([C@@H](C)O)NC(=O)[C@H](C(C)C)NC(=O)[C@H](CC2CCCCC2)NC(=O)[C@H](CCN)NC1=O` [Example 1233] ({CH2CO}-TY(Carboxymethyl)D[Phe(3-CN)][Phe(4-COOH)][Bip]Y(Carboxymethyl)[NMeA][dL][Dab][Cha]VTC[Dab][Aun]-OH; thioether N-14), the IC50 worked out at 66.7 nM.

With `CC(C)C[C@@H]1NC(=O)[C@H](Cc2c[nH]c3ccccc23)NC(=O)[C@H](CC(=O)O)NC(=O)[C@H](Cc2ccc(OCC(=O)O)cc2)NC(=O)[C@H](Cc2ccc(OCC(=O)O)cc2)NC(=O)CSC[C@@H](C(=O)N[C@@H](CCCN)C(=O)NCCOCCOCC(=O)NCCCCCCCCCCC(=O)O)NC(=O)[C@H](CO)NC(=O)[C@H](C(C)C)NC(=O)[C@H](CC2CCCCC2)NC(=O)[C@H](CCN)NC(=O)[C@@H](CC(C)C)NC(=O)[C@H](C)N(C)C(=O)[C@H](C(C)C)NC(=O)[C@H](Cc2ccc(-c3ccccc3)cc2)NC1=O` [Example 2130] ({CH2CO}-Y(Carboxymethyl)Y(Carboxymethyl)DWL[Bip]V[NMeA][dL][Dab][Cha]VSC[Orn][AEEA][Aun]-OH; thioether N-14), the IC50 amounted to 11.8 nM.

`CC(C)C[C@@H]1NC(=O)[C@H](Cc2c[nH]c3ccccc23)NC(=O)[C@H](CC(=O)O)NC(=O)[C@H](Cc2ccc(C(=O)O)cc2)NC(=O)[C@H](Cc2ccc(OCC(=O)O)cc2)NC(=O)CSC[C@@H](C(=O)N[C@@H](CCN)C(=O)NCCOCCOCC(=O)NCCCCCCCCCCC(=O)O)NC(=O)[C@H](CO)NC(=O)[C@H](C(C)C)NC(=O)[C@H](CC2CCCCC2)NC(=O)[C@H](CCN)NC(=O)[C@@H](CC(C)C)NC(=O)[C@H](C)N(C)C(=O)[C@H](C(C)C)NC(=O)[C@H](Cc2ccc(-c3ccccc3)cc2)NC1=O` [Example 2094] ({CH2CO}-Y(Carboxymethyl)[Phe(4-COOH)]DWL[Bip]V[NMeA][dL][Dab][Cha]VSC[Dab][AEEA][Aun]-OH; thioether N-14): the IC50 stood at 9.6 nM.

In the case of `Cc1cccc(C[C@@H]2NC(=O)[C@H](CC(=O)O)NC(=O)[C@H](Cc3ccc(OCC(=O)O)cc3)NC(=O)[C@H](CCCNC(=N)N)NC(=O)CSC[C@@H](C(=O)N[C@H](CCC(=O)O)C(=O)NCCCCCCCCCCC(=O)O)NC(=O)[C@H](C(C)O)NC(=O)[C@H](C(C)C)NC(=O)[C@H](CC3CCCCC3)NC(=O)[C@H](CCN)NC(=O)[C@@H](CC(C)C)NC(=O)[C@H](C)N(C)C(=O)[C@H](CCCNC(N)=O)NC(=O)[C@H](Cc3ccc(-c4ccccc4)cc3)NC(=O)[C@H](C(C)C)NC2=O)c1` (stereo partly drawn) [Example 2392] ({CH2CO}-RY(Carboxymethyl)D[Phe(3-Me)]V[Bip][Cit][NMeA][dL][Dab][Cha]V[Thr(3ξ)]C[dE][Aun]-OH; thioether N-14), the IC50 stood at 29.6 nM.

In the case of `CC(C)C[C@H]1NC(=O)[C@H](C)N(C)C(=O)[C@H](CCCNC(N)=O)NC(=O)[C@H](Cc2ccc(-c3ccccc3)cc2)NC(=O)[C@H](Cc2ccc(C(=O)O)cc2)NC(=O)[C@H](Cc2cccc(C(F)(F)F)c2)NC(=O)[C@H](CC(=O)O)NC(=O)[C@H](Cc2ccc(OCC(=O)O)cc2)NC(=O)[C@H](Cc2ccc(C(=O)O)cc2)NC(=O)CSC[C@@H](C(=O)N[C@@H](CCN)C(=O)NCCCCCCCCCCCCC(=O)O)NC(=O)[C@H](CCC(=O)O)NC(=O)[C@H](C(C)C)NC(=O)[C@H](CC2CCCCC2)NC(=O)[C@H](CCN)NC1=O` [Example 1147] ({CH2CO}-[Phe(4-COOH)]Y(Carboxymethyl)D[Phe(3-CF3)][Phe(4-COOH)][Bip][Cit][NMeA][dL][Dab][Cha]VEC[Dab]-{NH(CH2)12COOH}; thioether N-14), the IC50 was found to be 13.2 nM.

In the case of `CCC(C)[C@@H]1NC(=O)[C@H](Cc2ccc(-c3ccccc3)cc2)NC(=O)[C@H](CC(C)C)NC(=O)[C@H](Cc2c[nH]c3ccccc23)NC(=O)[C@H](CC(=O)O)NC(=O)[C@H](Cc2ccc(C(=O)O)cc2)NC(=O)[C@H](Cc2ccc(OCC(=O)O)cc2)NC(=O)CSC[C@@H](C(=O)NCCOCCOCC(=O)NCCCCCCCCCCC(=O)O)NC(=O)[C@H](CCCNC(=N)N)NC(=O)[C@H](C(C)C)NC(=O)[C@H](CC2CCCCC2)NC(=O)[C@H](CCN)NC(=O)[C@@H](CC(C)C)NC(=O)[C@H](CO)N(C)C1=O` (stereo partly drawn) [Example 2279] ({CH2CO}-Y(Carboxymethyl)[Phe(4-COOH)]DWL[Bip][Ile(3ξ)][NMeS][dL][Dab][Cha]VRC[AEEA][Aun]-OH; thioether N-14), the half-inhibitory concentration (IC50) worked out at 21.1 nM.

Take `CC(=O)NCCCC[C@@H]1NC(=O)[C@H](C(C)(C)O)NC(=O)[C@H](CC2CCCCC2)NC(=O)[C@H](CCN)NC(=O)[C@@H](CC(C)C)NC(=O)[C@H](C)N(C)C(=O)[C@H](CCCNC(N)=O)NC(=O)[C@H](Cc2ccc(-c3ccccc3)cc2)NC(=O)[C@H](Cc2ccc(C(=O)O)cc2)NC(=O)[C@H](Cc2cccc(C(F)(F)F)c2)NC(=O)[C@H](CC(=O)O)NC(=O)[C@H](Cc2ccc(OCC(=O)O)cc2)NC(=O)[C@H](Cc2ccc(C(=O)O)cc2)NC(=O)CSC[C@@H](C(=O)N[C@@H](CCN)C(=O)NCCOCCOCC(=O)N[C@@H](CCC(=O)NCCOCCOCC(=O)NCCCCCCCCCCCCC(=O)O)C(=O)O)NC1=O` [Example 1159] ({CH2CO}-[Phe(4-COOH)]Y(Carboxymethyl)D[Phe(3-CF3)][Phe(4-COOH)][Bip][Cit][NMeA][dL][Dab][Cha][Val(3-OH)]K(Ac)C[Dab][AEEA][γGlu][AEEA]-{NH(CH2)12COOH}; thioether N-14): the IC50 is 46.4 nM.

Turning to `CC(C)C[C@@H]1NC(=O)[C@H](Cc2c[nH]c3ccccc23)NC(=O)[C@H](CC(=O)O)NC(=O)[C@H](Cc2c[nH]cn2)NC(=O)[C@H](Cc2ccc(OCC(=O)O)cc2)NC(=O)CSC[C@@H](C(=O)N[C@@H](CCCN)C(=O)NCCOCCOCC(=O)NCCCCCCCCCCC(=O)O)NC(=O)[C@H](CO)NC(=O)[C@H](C(C)C)NC(=O)[C@H](CC2CCCCC2)NC(=O)[C@H](CCN)NC(=O)[C@@H](CC(C)C)NC(=O)[C@H](C)N(C)C(=O)[C@H](C(C)C)NC(=O)[C@H](Cc2ccc(-c3ccccc3)cc2)NC1=O` [Example 2146] ({CH2CO}-Y(Carboxymethyl)HDWL[Bip]V[NMeA][dL][Dab][Cha]VSC[Orn][AEEA][Aun]-OH; thioether N-14), the IC50 came to 12.7 nM.

Turning to `CC(C)C[C@@H]1NC(=O)[C@H](Cc2c[nH]c3ccccc23)NC(=O)[C@H](CC(=O)O)NC(=O)[C@H](Cc2ccc(C(=O)O)cc2)NC(=O)[C@H](Cc2ccc(OCC(=O)O)cc2)NC(=O)CSC[C@@H](C(=O)NCCOCCOCC(=O)NCCCCCCCCCCC(=O)O)NC(=O)[C@H](CCO)NC(=O)[C@H](C(C)C)NC(=O)[C@H](CC2CCCCC2)NC(=O)[C@H](CCN)NC(=O)[C@@H](CC(C)C)NC(=O)[C@H](C)N(C)C(=O)[C@H](CCC(N)=O)NC(=O)[C@H](Cc2ccc(-c3ccccc3)cc2)NC1=O` [Example 2244] ({CH2CO}-Y(Carboxymethyl)[Phe(4-COOH)]DWL[Bip]Q[NMeA][dL][Dab][Cha]V[hSer]C[AEEA][Aun]-OH; thioether N-14), the IC50 stood at 38.6 nM.

Turning to `CCC(C)[C@@H]1NC(=O)[C@H](Cc2ccc(-c3ccccc3)cc2)NC(=O)[C@H](C(C)C)NC(=O)[C@H](Cc2c[nH]c3ccccc23)NC(=O)[C@H](CC(=O)O)NC(=O)[C@H](Cc2ccc(OCC(=O)O)cc2)NC(=O)[C@H](Cc2ccncc2)NC(=O)CSC[C@@H](C(=O)N[C@@H](CCCN)C(=O)NCCOCCOCC(=O)NCCCCCCCCCCC(=O)O)NC(=O)[C@H](C(C)O)NC(=O)[C@H](C(C)C)NC(=O)[C@H](CC2CCCCC2)NC(=O)[C@H](CCN)NC(=O)[C@@H](CC(C)C)NC(=O)[C@H](C)N(C)C1=O` (stereo partly drawn) [Example 2104] ({CH2CO}-[4Pal]Y(Carboxymethyl)DWV[Bip][Ile(3ξ)][NMeA][dL][Dab][Cha]V[Thr(3ξ)]C[Orn][AEEA][Aun]-OH; thioether N-14), the IC50 stood at 14.1 nM.

In the case of `CC(C)C[C@H]1NC(=O)[C@H](C)N(C)C(=O)[C@H](Cc2ccc(OCC(=O)O)cc2)NC(=O)[C@H](Cc2ccc(-c3ccccc3)cc2)NC(=O)[C@H](Cc2ccc(OCC(=O)O)cc2)NC(=O)[C@H](Cc2c[nH]c3ccccc23)NC(=O)[C@H](CC(=O)O)NC(=O)[C@H](Cc2ccc(OCC(=O)O)cc2)NC(=O)[C@H]([C@@H](C)O)NC(=O)CSC[C@@H](C(=O)N[C@@H](CCN)C(=O)NCCOCCOCC(=O)NCCCCCCCCCCC(=O)O)NC(=O)[C@H]([C@@H](C)O)NC(=O)[C@H](C(C)C)NC(=O)[C@H](CC2CCCCC2)NC(=O)[C@H](CCN)NC1=O` [Example 1390] ({CH2CO}-TY(Carboxymethyl)DWY(Carboxymethyl)[Bip]Y(Carboxymethyl)[NMeA][dL][Dab][Cha]VTC[Dab][AEEA][Aun]-OH; thioether N-14), the IC50 was determined as 27.3 nM.
